How the values were obtained:
FLT3-ITD = biological target: T1, FLT3-ITD (Homo sapiens, UniProt P36888); assay: FLT3-ITD biochemical kinase assay (AlphaScreen)
T1 construct: FLT3-ITD; Invitrogen #PV6190
T1 sequence (P36888 1-993): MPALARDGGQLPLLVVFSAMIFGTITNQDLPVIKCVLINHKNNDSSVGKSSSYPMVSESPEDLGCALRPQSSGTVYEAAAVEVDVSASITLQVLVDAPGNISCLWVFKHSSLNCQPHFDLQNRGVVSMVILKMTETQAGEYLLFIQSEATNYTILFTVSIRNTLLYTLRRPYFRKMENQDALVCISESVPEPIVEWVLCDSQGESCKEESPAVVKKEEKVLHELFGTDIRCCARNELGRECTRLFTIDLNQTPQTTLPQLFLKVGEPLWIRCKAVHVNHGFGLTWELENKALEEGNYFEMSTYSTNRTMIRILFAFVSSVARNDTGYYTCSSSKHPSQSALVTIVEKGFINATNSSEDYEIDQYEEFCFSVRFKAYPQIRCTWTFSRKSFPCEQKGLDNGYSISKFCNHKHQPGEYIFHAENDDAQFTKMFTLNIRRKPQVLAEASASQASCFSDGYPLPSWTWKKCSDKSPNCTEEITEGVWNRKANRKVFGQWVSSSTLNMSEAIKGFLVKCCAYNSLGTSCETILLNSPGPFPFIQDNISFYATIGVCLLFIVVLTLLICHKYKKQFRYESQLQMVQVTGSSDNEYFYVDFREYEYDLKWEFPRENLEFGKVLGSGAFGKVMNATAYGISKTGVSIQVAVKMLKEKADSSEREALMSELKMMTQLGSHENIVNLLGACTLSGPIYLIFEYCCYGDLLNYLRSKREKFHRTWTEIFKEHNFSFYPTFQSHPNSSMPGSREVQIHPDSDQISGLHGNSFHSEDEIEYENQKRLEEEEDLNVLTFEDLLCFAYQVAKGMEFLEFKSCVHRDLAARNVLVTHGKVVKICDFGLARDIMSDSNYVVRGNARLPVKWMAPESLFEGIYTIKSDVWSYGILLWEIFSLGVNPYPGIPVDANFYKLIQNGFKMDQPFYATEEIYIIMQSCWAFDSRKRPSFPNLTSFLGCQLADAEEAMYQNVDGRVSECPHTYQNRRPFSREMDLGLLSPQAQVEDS
How it was run: (§1)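 Compounds were tested against recombinant enzyme using AlphaScreen detection of tyrosine-phosphorylated biotin-poly(Glu4-Tyr) (30 nM final). The ATP concentration differed by construct: 10 μM for D835Y, 100 μM for ITD.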

FLT3-D835Y = biological target: T2, FLT3-D835Y (Homo sapiens, UniProt P36888, D835Y); assay: FLT3-D835Y biochemical kinase assay (AlphaScreen)
T2 construct: purchased Invitrogen PV3967
T2 sequence (P36888 27-993 D835Y): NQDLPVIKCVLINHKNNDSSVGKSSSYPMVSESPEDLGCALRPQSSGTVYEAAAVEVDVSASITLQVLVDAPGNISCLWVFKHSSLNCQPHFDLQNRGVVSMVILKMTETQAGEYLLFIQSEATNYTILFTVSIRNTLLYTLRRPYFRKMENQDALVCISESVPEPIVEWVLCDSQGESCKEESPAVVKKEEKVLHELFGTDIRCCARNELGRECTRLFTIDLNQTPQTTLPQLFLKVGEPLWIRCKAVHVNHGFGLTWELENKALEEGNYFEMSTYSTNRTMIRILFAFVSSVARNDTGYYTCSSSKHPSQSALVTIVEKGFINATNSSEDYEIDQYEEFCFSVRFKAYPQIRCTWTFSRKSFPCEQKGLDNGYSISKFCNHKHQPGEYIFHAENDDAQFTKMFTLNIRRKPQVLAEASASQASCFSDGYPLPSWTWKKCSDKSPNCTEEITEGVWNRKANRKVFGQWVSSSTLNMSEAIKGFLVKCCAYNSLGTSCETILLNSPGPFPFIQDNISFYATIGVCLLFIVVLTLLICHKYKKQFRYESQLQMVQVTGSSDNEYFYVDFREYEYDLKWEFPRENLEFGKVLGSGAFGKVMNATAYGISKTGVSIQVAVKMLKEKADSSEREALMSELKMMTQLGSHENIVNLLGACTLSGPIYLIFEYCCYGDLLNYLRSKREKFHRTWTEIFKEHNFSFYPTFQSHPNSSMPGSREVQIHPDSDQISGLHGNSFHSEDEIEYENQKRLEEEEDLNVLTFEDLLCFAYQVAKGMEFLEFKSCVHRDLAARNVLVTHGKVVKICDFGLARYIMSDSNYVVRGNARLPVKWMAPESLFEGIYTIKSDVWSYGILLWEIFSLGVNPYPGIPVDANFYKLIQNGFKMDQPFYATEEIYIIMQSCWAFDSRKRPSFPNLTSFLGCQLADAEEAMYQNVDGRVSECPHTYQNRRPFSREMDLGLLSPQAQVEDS
How it was run: as §1

Structure (SMILES)	IC50 (FLT3-ITD) [µM]	IC50 (FLT3-D835Y) [µM]
CC(C)(C)n1cnc2ccc(-c3c[nH]c4ncc(NC(=O)c5cccc(C#N)c5)cc34)cc21 [P-235, N-[3-(3-tert-butylbenzimidazol-5-yl)-1H-pyrrolo[2,3-b]pyridin-5-yl]-3-cyano-benzamide]	0.0001 to 1	0.0001 to 1
COc1cnc2[nH]cc(-c3ccc4ncn(-c5ccc(F)cc5)c4c3)c2c1 [P-103, 1-(4-fluorophenyl)-6-(5-methoxy-1H-pyrrolo[2,3-b]pyridin-3-yl)benzimidazole]	0.0001 to 1	0.0001 to 1
O=S(=O)(c1cccc(-c2cnc3[nH]cc(-c4ccc5ncn(C6CCCNC6)c5c4)c3n2)c1)N1CCCC1 (centres unmarked) [P-237, 7-[3-(3-piperidyl)benzimidazol-5-yl]-2-(3-pyrrolidin-1-ylsulfonylphenyl)-5H-pyrrolo[2,3-b]pyrazine]	0.0001 to 1	0.0001 to 1
COc1ncc(-c2cnc3[nH]cc(-c4ccc5ncn(C6CCCNC6)c5c4)c3n2)cn1 (centres unmarked) [P-264, 2-(2-methoxypyrimidin-5-yl)-7-[3-(3-piperidyl)benzimidazol-5-yl]-5H-pyrrolo[2,3-b]pyrazine]	0.0001 to 1	0.0001 to 1
CC(C)(C)n1cnc2ccc(-c3c[nH]c4ncc(-c5cccc(N6CCCCS6(=O)=O)c5)cc34)cc21 [P-221, 2-[3-[3-(3-tert-butylbenzimidazol-5-yl)-1H-pyrrolo[2,3-b]pyridin-5-yl]phenyl]thiazinane 1,1-dioxide]	0.0001 to 1	0.0001 to 1
COc1cc(-c2cnc3[nH]cc(-c4ccc5ncn(C6CCCNC6)c5c4)c3n2)cc(OC)n1 (centres unmarked) [P-195, 2-(2,6-dimethoxy-4-pyridyl)-7-[3-(3-piperidyl)benzimidazol-5-yl]-5H-pyrrolo[2,3-b]pyrazine]	0.0001 to 1	0.0001 to 1
COc1cnc2[nH]cc(-c3ccc4ncn(-c5cccc(F)c5)c4c3)c2c1 [P-128, 1-(3-fluorophenyl)-6-(5-methoxy-1H-pyrrolo[2,3-b]pyridin-3-yl)benzimidazole]	0.0001 to 1	0.0001 to 1
CC(C)(C)n1cnc2ccc(-c3c[nH]c4ncc(-c5ccc(F)c(C#N)c5)nc34)cc21 [P-230, 5-[7-(3-tert-butylbenzimidazol-5-yl)-5H-pyrrolo[2,3-b]pyrazin-2-yl]-2-fluoro-benzonitrile]	0.0001 to 1	0.0001 to 1
COc1cc(C#Cc2cnc3[nH]cc(-c4ccc5ncn(C(C)(C)C)c5c4)c3c2)ccn1 [P-240, 1-(tert-butyl)-6-(5-((2-methoxypyridin-4-yl)ethynyl)-1H-pyrrolo[2,3-b]pyridin-3-yl)-1H-benzo[d]imidazole]	0.0001 to 1	0.0001 to 1
COc1cc(-c2cnc3[nH]cc(-c4ccc5ncn(C(C)(C)C)c5c4)c3c2)ccn1 [P-106, 1-tert-butyl-6-[5-(2-methoxy-4-pyridyl)-1H-pyrrolo[2,3-b]pyridin-3-yl]benzimidazole]	0.0001 to 1	0.0001 to 1

Reference: patent US10160755B2 (Plexxikon Inc., priority 2015, dated 2018)
